Laboratory results as given in US7530196B2, “Method for improving plant growth by application of a mixture of sulfur and complexing agent” (BASF Aktiengesellschaft, priority 2001, dated 2009).

How the values were obtained:
[1] = tested on: Chinese leaves; assay: Container experiment with Chinese leaves: growth (fresh-matter yield); assay type: in vivo, Chinese leaves "Kasumi"
Experimental: (§1) Experimental Set-Up: Container Experiment With Chinese Leaves • 1. without addition • 2. 8 mg S/pot/week • 3. 80 mg S/pot/week • 4. 2 mg sodium lignosulfonate/pot/week • 5. 20 mg sodium lignosulfonate/pot/week • 6. 10 mg mixture of 80% by weight sulfur and 20% by weight sodium lignosulfonate/pot/week • 7. 100 mg mixture of 80% by weight sulfur and 20% by weight sodium lignosulfonate/pot/week Method: Plant Species: Chinese leaves “Kasumi”, sown into P-soil in multi-cell trays, age at pricking out time into experimental containers: approx. 14 days; the same containers are planted twice. Soil from Ruchheim, loam, pH 7.4, mixed with quartz sand (for retaining the structural stability during the container experiment). PE pots/15, approx. 1 l substrate (1.5 kg). Greenhouse, 25° C., supplementary lighting suitable for assimilation. Plant food 15+10+15+2 with trace elements without chelating agent (LAB 2411D; 0.5 g/container/week). Using a syringe and cannula into the soil at a depth of approx. 1 cm to simulate trickle irrigation conditions. The additions were applied in one application weekly via the cannula. 10 mg of mixture M according to the invention/container/week correspond to approx. 5 kg/ha.

[2] = tested on: Chinese leaves; assay: Container experiment with Chinese leaves: mineral contents in leaves; assay type: in vivo, Chinese leaves "Kasumi"; details: plant batch 1; for Iron content in ppm / Manganese content in ppm: Table 3
Experimental: as §1

[3] = plant batch 1, S 8 mg, lignosulfonate 2 mg, mixture M 10 mg per pot/week
[4] = plant batch 1, S 80 mg, lignosulfonate 20 mg, mixture M 100 mg per pot/week
[5] = plant batch 2, S 8 mg, lignosulfonate 2 mg, mixture M 10 mg per pot/week
[6] = plant batch 2, S 80 mg, lignosulfonate 20 mg, mixture M 100 mg per pot/week
[7] = S 8 mg, lignosulfonate 2 mg, mixture M 10 mg
[8] = S 80 mg, lignosulfonate 20 mg, mixture M 100 mg

## S1SSSSSSS1 [Sulfur, sulfur]
[1]; increasing additions, in particular in the first batch of plants
  Effect on growth (in words): no growth-promoting effect
[1]; [3]
  Fresh-matter yield: 106 g/container
  Fresh-matter yield % of untreated: 97 % of untreated
[1]; [4]
  Fresh-matter yield: 108 g/container
  Fresh-matter yield % of untreated: 99 % of untreated
[1]; [5]
  Fresh-matter yield: 67 g/container
  Fresh-matter yield % of untreated: 96 % of untreated
[1]; [6]
  Fresh-matter yield: 68 g/container
  Fresh-matter yield % of untreated: 97 % of untreated
[2]; [7]
  Iron content in ppm: 140 ppm
  Manganese content in ppm: 66 ppm
  Fe content in leaves: 140 ppm in DM
  Iron content in % of untreated: 127 % of untreated
  K content in leaves: 5.23 % in DM
  Manganese content in % of untreated: 101 % of untreated
  Mg content in leaves: 0.24 % in DM
  Mn content in leaves: 66 ppm in DM
  N content in leaves: 3.57 % in DM
  P content in leaves: 0.46 % in DM
[2]; [8]
  Iron content in ppm: 174 ppm
  Manganese content in ppm: 67 ppm
  Fe content in leaves: 174 ppm in DM
  Iron content in % of untreated: 158 % of untreated
  K content in leaves: 5.57 % in DM
  Manganese content in % of untreated: 103 % of untreated
  Mg content in leaves: 0.25 % in DM
  Mn content in leaves: 67 ppm in DM
  N content in leaves: 3.86 % in DM
  P content in leaves: 0.50 % in DM
